Test results from patent US7259271B2, “Peripherally-selective inhibitors of dopamine-β-hydroxylase and method of their preparation” (Portela & C.A., S.A., priority 2002, dated 2007).
Where a name gives a salt, the structure may show the parent alone.

Molecular target: T1, human DβH (Homo sapiens, UniProt P09172)
T1 construct: SK-N-SH cells (ATCC HTB-11), a human neuroblastoma derived cell line, were used as a source of human DβH; host or cells: SK-N-SH cells
T1 sequence (P09172 1-617): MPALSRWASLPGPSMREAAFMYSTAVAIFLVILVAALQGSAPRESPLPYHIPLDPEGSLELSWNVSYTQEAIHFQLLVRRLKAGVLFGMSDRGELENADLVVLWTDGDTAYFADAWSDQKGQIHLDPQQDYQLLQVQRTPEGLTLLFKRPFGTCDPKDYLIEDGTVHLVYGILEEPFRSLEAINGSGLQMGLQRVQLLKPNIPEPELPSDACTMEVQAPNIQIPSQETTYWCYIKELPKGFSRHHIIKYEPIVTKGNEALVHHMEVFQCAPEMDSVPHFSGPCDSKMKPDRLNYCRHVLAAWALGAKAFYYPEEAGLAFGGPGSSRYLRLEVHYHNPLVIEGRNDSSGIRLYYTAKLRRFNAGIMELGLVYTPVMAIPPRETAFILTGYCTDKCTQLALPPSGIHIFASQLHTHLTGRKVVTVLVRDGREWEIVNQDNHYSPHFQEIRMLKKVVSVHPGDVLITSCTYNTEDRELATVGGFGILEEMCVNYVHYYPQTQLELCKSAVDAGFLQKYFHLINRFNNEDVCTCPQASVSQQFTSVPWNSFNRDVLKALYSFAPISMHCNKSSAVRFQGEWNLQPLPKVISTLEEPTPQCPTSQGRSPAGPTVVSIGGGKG
Assay: DβH activity (β-hydroxylation of dopamine to noradrenaline) in SK-N-SH cells
Type: cell-based
Conditions: for DβH activity in SK-N-SH cells, Mean ± SEM: compound 5 μM, 50 mM dopamine; for inhibition of DβH activity (in words): 5 μM, as listed in Table 1; for remaining activity at 5 µM: SK-N-SH, 0.75 h, read-out: DβH activity in SK-N-SH cells, Mean ± SEM
Experimental: SK-N-SH cells (ATCC HTB-11), a human neuroblastoma derived cell line, were used as a source of human DβH. SK-N-SH cells cultured in 24 well plates were preincubated for 20 min in a reaction medium containing 200 mM sodium acetate, 30 mM N-ethylmaleimide, 5 μM copper sulphate, 0.5 mg/ml catalase aqueous solution, 1 mM pargyline, 10 mM sodium fumarate and 20 mM ascorbic acid. […] During preincubation and incubation, the cells were continuously shaken and maintained at 37° C. The reaction was terminated by the addition of 0.2 M perchloric acid. The acidified samples were stored at 4° C. before injection into the high pressure liquid chromatograph for the assay of noradrenaline.

Row | SMILES | DβH activity in SK-N-SH cells, Mean ± SEM | inhibition of DβH activity (in words) | remaining activity at 5 µM
1 | Cl.NCCc1c[nH]c(=S)n1[C@H]1COc2cc(F)c(F)cc2C1 [Compound 8, (R)-5-(2-aminoethyl)-1-(6,7-difluorochroman-3-yl)-1,3-dihydroimidazole-2-thione hydrochloride] |  | markedly inhibit | 9.4 ± 0.7%
2 | NCCc1c[nH]c(=S)n1[C@@H]1COc2c(F)cc(F)cc2C1 [Compound 9, (S)-5-(2-aminoethyl)-1-(6,8-difluorochroman-3-yl)-1,3-dihydroimidazole-2-thione hydrochloride] |  |  | 50.2 ± 1.9%
3 | CC(=O)Nc1ccc2c(c1)C[C@@H](n1c(CCN)c[nH]c1=S)CO2 [Compound 14, (R)-5-(2-aminoethyl)-1-[6-(acetylamino)chroman-3-yl]-1,3-dihydroimidazole-2-thione hydrochloride] |  |  | 77.9 ± 2.2%
4 | NCCc1c[nH]c(=S)n1[C@H]1COc2cc(Cc3ccccc3)c(O)cc2C1 [Compound 15, (R)-5-(2-aminoethyl)-1-(6-hydroxy-7-benzylchroman-3-yl)-1,3-dihydroimidazole-2-thione hydrochloride] |  |  | 86.1 ± 2.7%
5 | Cl.NCCc1c[nH]c(=S)n1[C@H]1COc2c(F)cccc2C1 [Compound 6, (R)-5-(2-aminoethyl)-1-(8-fluorochroman-3-yl)-1,3-dihydroimidazole-2-thione hydrochloride] |  | markedly inhibit | 6.9 ± 0.6%
6 | NCCc1c[nH]c(=S)n1[C@H]1COc2ccc([N+](=O)[O-])cc2C1 [Compound 18, (R)-5-(2-aminoethyl)-1-(6-nitrochroman-3-yl)-1,3-dihydroimidazole-2-thione hydrochloride] |  |  | 94.8 ± 1.2%
7 | NCCc1c[nH]c(=S)n1[C@H]1COc2c(O)cccc2C1 [Compound 21, (R)-5-(2-aminoethyl)-1-(8-hydroxychroman-3-yl)-1,3-dihydroimidazole-2-thione hydrochloride] |  |  | 125 ± 6.5%
8 | NCCc1c[nH]c(=S)n1[C@H]1CCc2ccccc2C1 [Compound 20, (S)-5-(2-aminoethyl)-1-(1,2,3,4-tetrahydronaphthalen-2-yl)-1,3-dihydroimidazole-2-thione hydrochloride] |  |  | 16.8 ± 4.8%
9 | Cl.NCCc1c[nH]c(=S)n1[C@H]1COc2c(cc(F)c(F)c2F)C1 [Compound 10, (R)-5-(2-aminoethyl)-1-(6,7,8-trifluorochroman-3-yl)-1,3-dihydroimidazole-2-thione hydrochloride] |  | markedly inhibit | 8.2 ± 0.7%
10 | Cl.NCc1c[nH]c(=S)n1[C@H]1COc2ccccc2C1 [Compound 24, (R)-5-aminomethyl-1-chroman-3-yl-1,3-dihydroimidazole-2-thione hydrochloride] |  | markedly inhibit | 0%

Next, values leading:

Row | DβH activity in SK-N-SH cells, Mean ± SEM | inhibition of DβH activity (in words) | remaining activity at 5 µM | SMILES
11 | 27.3 ± 0.4 % of control |  |  | Cl.NCCc1c[nH]c(=S)n1[C@H]1CSc2ccc(O)cc2C1 (racemic) [Compound 31, (R,S)-5-(2-aminoethyl)-1-(6-hydroxythiochroman-3-yl)-1,3-dihydroimidazole-2-thione hydrochloride]
12 |  | markedly inhibit | 2.6 ± 1.6% | CNCCc1c[nH]c(=S)n1[C@H]1COc2c(F)cc(F)cc2C1.Cl [Compound 28, (R)-1-(6,8-Difluorochroman-3-yl)-5-(2-methylaminoethyl)-1,3-dihydroimidazole-2-thione hydrochloride]
13 | 99.4 ± 2.8 % of control |  |  | COc1ccc2c(c1)C[C@@H](n1c(CCN)c[nH]c1=S)CS2.Cl (racemic) [Compound 30, (R,S)-5-(2-aminoethyl)-1-(6-methoxythiochroman-3-yl)-1,3-droimidazole-2-thione hydrochloride]
14 |  | markedly inhibit | 4.5 ± 1.9% | Cl.Oc1ccc2c(c1)C[C@@H](n1c(CCNCc3ccccc3)c[nH]c1=S)CO2 [Compound 26, (R)-5-(2-Benzylaminoethyl)-1-(6-hydroxychroman-3-yl)-1,3-dihydroimidazole-2-thione hydrochloride]
